Data as given in US6426401B1, “Pharmaceutical composition containing an inhibitor of immunoglobulin-receptor interaction” (Tecnogen S.C.p.A., priority 1996, dated 2002).
In brackets after ≈: the same amount, converted by molar mass.

Columns and labels:
[1] = test system: interaction between human IgG and receptors Fcγ (U937 plasma-membrane); assay: IgG-FcR binding inhibition on U937 plasma-membrane (ELISA)
From the text: For this purpose, it has been developed an inhibition assay of the binding between human immunoglobulins (Ig) IgG and IgA and their receptors on U937 human cell line plasma-membrane.
The IgG receptors FcgRI and FcgRII (Looney R. et al., J. Immunol., 136, 1641, 1986) and IgA receptors Fca (Monteiro R. C., et al., J. Exp.Med., 171, 597-613, 1990) are constitutively express by this cell line.
Microplates for ELISA determination (Falcon Cat. No. 3912) have been treated with plasma-membrane obtained from U937 cells in variable concentrations between 0.1 and 10 μg/ml (referred to the total proteins in the plasma-membrane preparation) in PBS, 100 μl/well, for 15 hours at 4° C.
After 1 hour and 30′ at room temperature, the plates have been washed 5 times with PBS-T (PBS-Tween 0.05%) and each well has been filled with 100 μl of solutions containing biotinilated Ig at variable concentrations between 0.02 and 2 μg/ml in PBS-BSA 0.5%.
After incubation of 1 h 30′ at 37° C., a solution of streptavidin derivatized with peroxidase has been added (Sigma, Cat. No. S-5512) diluted 1:1000 in PBS-BSA 0.5%, 100 μl/well. After 1 h incubation at 37° C., the plates have been washed 5 times with PBS-T and each well has been filled with 100 μl of a 2,2′-azino-bis(3-ethylbenzthiazoline-6-sulfonic acid) (Sigma, Cat. No. A-9941) in phosphate buffer pH 5 and 0.012% hydrogen peroxide.
After about 30′ the absorbance at 405 nm of each well has been determined by a plate reader (Merck, Mod. Mios) and the results are shown in TABLE 1.
The inhibition Ig/Fc assay has been carried out using U937 plasma-membrane at 10 μg/ml concentration for immobilization on plate and biotinilated Ig at 0.4 μg/ml concentration.
IgGs have been incubated with peptides of this invention (L-PAM, D-PAM and P-PAM) and two controls, namely peptides Arg-Thr-Tyr in L configuration (named CON-L) and in D configuration (named CON-D), at concentrations between 1 to 500 μg/ml (Table 2), whereas for IgA the inhibition assays have been carried out in similar conditions with L-PAM and CON-L peptides (Table 3).
B/B0 means the inhibition percentage calculated dividing the values, in terms of OD, obtained in presence of competitors, by those obtained in absence of competitors.

[2] = test system: interaction between human IgA and receptors Fcα (U937 plasma-membrane); assay: IgA/FcR binding inhibition on U937 plasma-membrane (ELISA)
From the text: For this purpose, it has been developed an inhibition assay of the binding between human immunoglobulins (Ig) IgG and IgA and their receptors on U937 human cell line plasma-membrane. The IgG receptors FcgRI and FcgRII (Looney R. et al., J. Immunol., 136, 1641, 1986) and IgA receptors Fca (Monteiro R. C., et al., J. Exp.Med., 171, 597-613, 1990) are constitutively express by this cell line. Microplates for ELISA determination (Falcon Cat. No. 3912) have been treated with plasma-membrane obtained from U937 cells in variable concentrations between 0.1 and 10 μg/ml (referred to the total proteins in the plasma-membrane preparation) in PBS, 100 μl/well, for 15 hours at 4° C. […] After incubation of 1 h 30' at 37° C., a solution of streptavidin derivatized with peroxidase has been added (Sigma, Cat. No. […] No. A-9941) in phosphate buffer pH 5 and 0.012% hydrogen peroxide. After about 30' the absorbance at 405 nm of each well has been determined by a plate reader (Merck, Mod. Mios) and the results are shown in TABLE 1. […] B/B0 has the above mentioned meaning.

SRBC-IgG and U937 FcRs = assay type: cell-based, human; conditions: for IC50 (inhibitor amount necessary to reduce at 50% the rosettes formation between SRBC-IgG and U937 FcRs): U937/SRBC-IgG 1:100, 30 minutes at 25° C.
From the text: The trial has been carried on L-PAM and D-PAM peptides with the assay of rosettes formation inhibition between sheep red blood cells (SRBC) derivatized with human IgG and U937 cells (prepared as described above). Rosettes formation assay has been performed in accordance with the protocol of Lund J. et al. (FASEB J., 9, 115-119, 1995) modified as follows. The derivatized SRBC have been prepared using SRBC-tanned (tannic acid pretreated SRBC, Sigma Cat. No. R-8128) and human IgG (Sigma Cat. No. I-4506) following the provider protocol. […] No. A-9418) in DPBS (Sigma, Cat. No. D-5527). […] After 30 minutes at 25° C. rosettes have been counted, and more particularly U937 having 4 or more SRBC bound on the surface. In these conditions it has been discovered that, on the average, the 45% of treated U937 gave rosettes formation. In the above described conditions, it has been performed the inhibition assay of rosettes formation by using L-PAM , D-PAM, CON-L and CON-D peptides. A further control assay has been carried on by using IgG as inhibition positive control and not derivatized SRBC as negative control.

[3] = test system: interaction IgE-receptor (FcεR of local mastcells); assay: Passive cutaneous anaphylaxis assay (blueing lesions, Evan's Blue); assay type: in vivo; conditions: rat; for Extension of blueing lesion (%): intradermal with ascitic fluid IgE; for inhibition of IgE-receptor interaction in vivo (in words): passive cutaneous anaphylaxis
Protocol: Rat ascit fluid containing ovalbumin antigen specific IgE and with a total immunoglobulins amount of 4 mg/ml, scaled diluted in PBS, has been injected by intradermal route in a male rat of CD specie.
Intradermal injection of 50 μl volume have been done on the shaved back of the animal.
In this way it has been allowed ascitic fluid IgE to bind FcεR of local mastcells, sensitizing them.
After 24 h, 1 mg of ovalbumin and Evan's Blue dye at 2% concentration in 1 ml of PBS have been injected by endovenous route.
After 15 minutes it has been observed the presence on the rat back derma of a colored area whose extension and color intensity are proportional to the IgE antigen-specific amount injected together with the ascitic fluid.
The blueing lesions are given by the injected antigen that bind to the IgE and determined the degranulation and the release of mediators in the site of intradermal injection. Consequently a local increase of vascular permeability and a dye leak from vessel has been observed.
For the inhibition assay, the ascitic fluid containing IgE and properly diluted has been incubated with L-PAM and D-PAM peptides in total immunoglobulins-peptides molar ratio 1:2,1:20,1:200, 1:2000, 1:20.000, and 1:200.000, […]
Separate experiments for the two peptides have been performed.
In CD1 rats, 50 μl of the fluid ascitic-peptide mixture at various concentrations have been injected intradermally.
As a positive control it has been used a 50 μl injection of ascitic fluid free of peptide.
After 24 h the antigen, together with Evans's Blue dye, has been injected as described above.
After 15 minutes it has been observed that the intensity and extension of the blueing lesions on the rat back were […] to the amounts of the injected peptide and were completely absent at highest peptide concentrations.

[4] = inhibitor amount 0.025 micrograms (first line)
[5] = inhibitor amount 0.025 micrograms
[6] = inhibitor amount 2.5 micrograms
[7] = inhibitor amount 250 micrograms
[8] = inhibitor amount 2500 micrograms

| Molecule | inhibition of IgG-FcR interaction (in words) [1] | inhibition of IgA-FcR interaction (in words) [2] | inhibition of rosettes formation (in words) (SRBC-IgG and U937 FcRs) | IC50 (inhibitor amount necessary to reduce at 50% the rosettes formation between SRBC-IgG and U937 FcRs) (SRBC-IgG and U937 FcRs) | Extension of blueing lesion (%) [3, 4] [%] | Extension of blueing lesion (%) [3, 5] [%] | Extension of blueing lesion (%) [3, 6] [%] | Extension of blueing lesion (%) ([3]; inhibitor amount 25 micrograms) | Extension of blueing lesion (%) [3, 7] [%] | Extension of blueing lesion (%) [3, 8] [%] | inhibition of IgE-receptor interaction in vivo (in words) [3] |
| --- | --- | --- | --- | --- | --- | --- | --- | --- | --- | --- | --- |
| (H2N-L-Arg(Pmc)-L-Thr(OtBu)-L-Tyr(OtBU)-CO)4-(Lys)2-Lys-Gly-OH [P-PAM] | produce, in a dose-dependent manner, the same interaction level as IgG | specifically inhibit the interaction IgA-FcR | – | – | – | – | – | – | – | – | – |
| bovine serum albumin [BSA, reference compound] | unable to inhibit this interaction | unable to produce the same effect | – | – | – | – | – | – | – | – | – |
| Arg-Thr-Tyr [CON-L, reference compound] | unable to inhibit this interaction | unable to produce the same effect | unable to inhibit this interaction | No Inhibition | – | – | – | – | – | – | – |
| C[C@H](O)[C@@H](NC(=O)[C@H](N)CCCNC(=N)N)C(=O)N[C@H](Cc1ccc(O)cc1)C(=O)NCCCC[C@H](NC(=O)[C@@H](Cc1ccc(O)cc1)NC(=O)[C@H](NC(=O)[C@H](N)CCCNC(=N)N)[C@H](C)O)C(=O)NCCCC[C@H](NC(=O)[C@H](CCCCNC(=O)[C@@H](Cc1ccc(O)cc1)NC(=O)[C@H](NC(=O)[C@H](N)CCCNC(=N)N)[C@H](C)O)NC(=O)[C@@H](Cc1ccc(O)cc1)NC(=O)[C@H](NC(=O)[C@H](N)CCCNC(=N)N)[C@H](C)O)C(=O)NCC(=O)O [D-PAM, (H2N-D-Arg-D-Thr-D-Tyr-CO)4-(Lys)2-Lys-Gly-OH] | produce, in a dose-dependent manner, the same interaction level as IgG | – | capable of inhibiting rosettes formation | – | 60 | 37 | 33 | 20 | 15 | 0 | able to inhibit in a dose dependent manner the interaction IgE-receptor up to a complete disappearance of the inflammatory reaction |
| C[C@@H](O)[C@H](NC(=O)[C@@H](N)CCCNC(=N)N)C(=O)N[C@@H](Cc1ccc(O)cc1)C(=O)NCCCC[C@H](NC(=O)[C@H](Cc1ccc(O)cc1)NC(=O)[C@@H](NC(=O)[C@@H](N)CCCNC(=N)N)[C@@H](C)O)C(=O)NCCCC[C@H](NC(=O)[C@H](CCCCNC(=O)[C@H](Cc1ccc(O)cc1)NC(=O)[C@@H](NC(=O)[C@@H](N)CCCNC(=N)N)[C@@H](C)O)NC(=O)[C@H](Cc1ccc(O)cc1)NC(=O)[C@@H](NC(=O)[C@@H](N)CCCNC(=N)N)[C@@H](C)O)C(=O)NCC(=O)O [L-PAM, (H2N-L-Arg-L-Thr-L-Tyr-CO)4-(Lys)2-Lys-Gly-OH] | produce, in a dose-dependent manner, the same interaction level as IgG | specifically inhibit the interaction IgA-FcR | capable of inhibiting rosettes formation | 78 µg/mL (≈ 36.4 µM) | 65 | 50 | 35 | 0 | 0 | 0 | able to inhibit in a dose dependent manner the interaction IgE-receptor up to a complete disappearance of the inflammatory reaction |
